How the values were obtained:
[1] = tested on: Human multiple myeloma cell (MM.1S); assay: Tumor cell proliferation inhibition (CellTiter-Meiluncell luminescent cell viability assay); details: for inhibition at 0.01 µM / inhibition at 0.5 µM: Homo sapiens, MM1.S, 96 h; for inhibition at 0.01 µM: read-out: Inhibition Rate at 10 nM (%); for Inhibition Rate at 500 nM (%): MM.1S, 96 hours; for inhibition at 0.5 µM: read-out: Inhibition Rate at 500 nM (%)
WEE1 = biological target: T1, WEE1 (Homo sapiens, UniProt P30291+Q96SW2); assay: Western blot, degradation of substrate protein in hPBMCs; assay type: cell-based
T1 construct: effects of the compounds of the present disclosure on the expression of target proteins in cells; endogenous in cells; host or cells: human PBMCs (Milecell Biotechnologies)

IKZF1 = biological target: T2, IKZF1 (Homo sapiens, UniProt Q13422+Q96SW2); assay: as above; assay type: cell-based
T2 construct: effects of the compounds of the present disclosure on the expression of target proteins in cells; endogenous in cells; host or cells: human PBMCs (Milecell Biotechnologies)

CK1α = biological target: T3, CK1α (Homo sapiens, UniProt P48729+Q96SW2); assay: as above; assay type: cell-based
T3 construct: effects of the compounds of the present disclosure on the expression of target proteins in cells; endogenous in cells; host or cells: human PBMCs (Milecell Biotechnologies)

IKZF2 = biological target: T4, IKZF2 (Homo sapiens, UniProt Q96SW2+Q9UKS7); assay: as above; assay type: cell-based
T4 construct: effects of the compounds of the present disclosure on the expression of target proteins in cells; endogenous in cells; host or cells: human PBMCs (Milecell Biotechnologies)

IKZF3 = biological target: T5, IKZF3 (Homo sapiens, UniProt Q96SW2+Q9UKT9); assay: as above; assay type: cell-based
T5 construct: effects of the compounds of the present disclosure on the expression of target proteins in cells; endogenous in cells; host or cells: human PBMCs (Milecell Biotechnologies)

[2] = tested on: Human myeloid monocytic leukemia cell (MV-4-11); assay: Tumor cell proliferation inhibition (CellTiter-Meiluncell luminescent cell viability assay); details: MV4-11, 96 h; for inhibition at 0.01 µM: read-out: Inhibition Rate at 10 nM (%); for inhibition at 0.5 µM: read-out: Inhibition Rate at 500 nM (%)
GSPT1 = assay: Western blot, degradation of substrate protein in hPBMCs; assay type: cell-based, Human
[3] = biological target: T6, human Cereblon WT GST-tagged protein (Homo sapiens, UniProt Q96SW2); assay: CRBN-binding affinity, HTRF (CEREBLON BINDING kit); details: for inhibition at 0.5 µM: read-out: Inhibition Rate at 0.5 µM (%); for inhibition at 2 µM: read-out: Inhibition Rate at 2 µM (%)
T6 construct: purchased CISBIO 64BDCRBNPEH

[4] = Western blot, 24 hours of compound treatment, compounds tested at 50 nM and 500 nM (concentration for the table not stated)
[5] = 24 hours treatment, compounds at 50 nM and 500 nM (concentration behind the class not stated)

T6 sequence (Q96SW2 whole entry): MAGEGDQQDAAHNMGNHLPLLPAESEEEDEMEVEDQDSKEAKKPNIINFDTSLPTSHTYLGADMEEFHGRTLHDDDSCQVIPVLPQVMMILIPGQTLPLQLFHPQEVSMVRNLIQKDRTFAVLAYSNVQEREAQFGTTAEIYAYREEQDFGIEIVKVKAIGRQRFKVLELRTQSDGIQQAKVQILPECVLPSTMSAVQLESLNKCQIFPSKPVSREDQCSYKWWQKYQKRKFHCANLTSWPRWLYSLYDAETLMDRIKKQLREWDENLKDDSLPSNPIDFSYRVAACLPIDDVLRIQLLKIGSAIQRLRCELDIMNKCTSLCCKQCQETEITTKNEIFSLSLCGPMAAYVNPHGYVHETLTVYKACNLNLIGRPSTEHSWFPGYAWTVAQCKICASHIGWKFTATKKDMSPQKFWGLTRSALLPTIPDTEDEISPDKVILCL
T2 sequence (Q13422 whole entry): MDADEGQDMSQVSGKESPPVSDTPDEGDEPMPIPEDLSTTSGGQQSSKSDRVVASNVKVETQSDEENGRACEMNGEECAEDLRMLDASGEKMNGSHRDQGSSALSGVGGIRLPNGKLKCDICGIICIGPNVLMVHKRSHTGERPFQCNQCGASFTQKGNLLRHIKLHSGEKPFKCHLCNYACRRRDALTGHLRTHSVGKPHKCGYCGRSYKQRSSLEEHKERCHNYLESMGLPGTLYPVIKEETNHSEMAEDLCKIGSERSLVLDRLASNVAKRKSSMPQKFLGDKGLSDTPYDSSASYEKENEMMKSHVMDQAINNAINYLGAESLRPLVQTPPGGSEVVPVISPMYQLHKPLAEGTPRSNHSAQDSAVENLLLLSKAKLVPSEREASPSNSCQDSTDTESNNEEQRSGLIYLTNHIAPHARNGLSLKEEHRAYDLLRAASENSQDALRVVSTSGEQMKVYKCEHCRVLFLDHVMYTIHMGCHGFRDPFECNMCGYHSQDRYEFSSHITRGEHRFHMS
T2 sequence (Q96SW2 whole entry): as the sequence (Q96SW2 whole entry) above
T2 sequence (Q16531 whole entry partner): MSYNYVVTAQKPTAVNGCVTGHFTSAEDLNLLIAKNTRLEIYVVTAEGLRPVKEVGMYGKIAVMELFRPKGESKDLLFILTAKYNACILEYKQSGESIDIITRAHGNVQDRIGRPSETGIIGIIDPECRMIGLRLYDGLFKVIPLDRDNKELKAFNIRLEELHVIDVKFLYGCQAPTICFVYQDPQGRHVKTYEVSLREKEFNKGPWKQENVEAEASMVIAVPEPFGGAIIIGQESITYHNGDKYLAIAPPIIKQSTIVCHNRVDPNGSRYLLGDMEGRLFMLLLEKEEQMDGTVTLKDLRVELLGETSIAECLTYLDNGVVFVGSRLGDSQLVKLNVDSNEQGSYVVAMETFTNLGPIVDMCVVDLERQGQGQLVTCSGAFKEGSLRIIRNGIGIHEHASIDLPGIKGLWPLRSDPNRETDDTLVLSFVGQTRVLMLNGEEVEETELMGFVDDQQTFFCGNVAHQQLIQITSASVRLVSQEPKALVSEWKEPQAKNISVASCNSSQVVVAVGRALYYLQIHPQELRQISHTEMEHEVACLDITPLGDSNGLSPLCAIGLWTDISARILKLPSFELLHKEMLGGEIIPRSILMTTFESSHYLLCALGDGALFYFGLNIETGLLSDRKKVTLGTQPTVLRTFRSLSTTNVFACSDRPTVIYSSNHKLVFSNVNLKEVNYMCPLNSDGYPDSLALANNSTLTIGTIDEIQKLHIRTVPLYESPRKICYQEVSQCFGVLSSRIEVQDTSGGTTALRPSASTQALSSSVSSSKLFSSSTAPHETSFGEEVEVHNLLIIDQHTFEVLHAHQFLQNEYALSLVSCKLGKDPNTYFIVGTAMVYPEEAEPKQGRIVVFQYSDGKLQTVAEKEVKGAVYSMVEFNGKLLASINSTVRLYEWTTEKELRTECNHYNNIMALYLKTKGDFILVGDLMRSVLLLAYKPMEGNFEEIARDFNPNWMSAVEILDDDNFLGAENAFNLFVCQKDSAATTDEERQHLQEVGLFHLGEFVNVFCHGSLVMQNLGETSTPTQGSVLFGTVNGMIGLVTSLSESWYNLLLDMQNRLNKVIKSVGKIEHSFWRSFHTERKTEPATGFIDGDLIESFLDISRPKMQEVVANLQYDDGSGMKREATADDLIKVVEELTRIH
T5 sequence (Q9UKT9 whole entry): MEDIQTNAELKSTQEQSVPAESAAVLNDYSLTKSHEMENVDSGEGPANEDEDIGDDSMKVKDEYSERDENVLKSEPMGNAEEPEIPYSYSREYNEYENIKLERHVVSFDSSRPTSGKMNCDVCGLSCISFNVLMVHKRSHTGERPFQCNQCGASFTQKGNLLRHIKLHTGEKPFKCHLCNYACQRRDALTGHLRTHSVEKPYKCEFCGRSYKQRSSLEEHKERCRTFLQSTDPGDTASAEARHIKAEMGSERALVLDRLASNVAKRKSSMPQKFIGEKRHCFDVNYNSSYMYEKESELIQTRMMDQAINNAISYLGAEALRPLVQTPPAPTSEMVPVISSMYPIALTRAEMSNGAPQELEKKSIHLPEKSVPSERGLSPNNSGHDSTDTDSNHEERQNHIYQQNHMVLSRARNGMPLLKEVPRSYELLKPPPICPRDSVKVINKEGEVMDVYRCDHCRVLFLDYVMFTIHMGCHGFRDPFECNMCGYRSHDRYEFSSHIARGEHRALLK
T5 sequence (Q96SW2 whole entry): as the sequence (Q96SW2 whole entry) above
T5 sequence (Q16531 whole entry partner): as the sequence (Q16531 whole entry partner) above
T1 sequence (P30291 whole entry): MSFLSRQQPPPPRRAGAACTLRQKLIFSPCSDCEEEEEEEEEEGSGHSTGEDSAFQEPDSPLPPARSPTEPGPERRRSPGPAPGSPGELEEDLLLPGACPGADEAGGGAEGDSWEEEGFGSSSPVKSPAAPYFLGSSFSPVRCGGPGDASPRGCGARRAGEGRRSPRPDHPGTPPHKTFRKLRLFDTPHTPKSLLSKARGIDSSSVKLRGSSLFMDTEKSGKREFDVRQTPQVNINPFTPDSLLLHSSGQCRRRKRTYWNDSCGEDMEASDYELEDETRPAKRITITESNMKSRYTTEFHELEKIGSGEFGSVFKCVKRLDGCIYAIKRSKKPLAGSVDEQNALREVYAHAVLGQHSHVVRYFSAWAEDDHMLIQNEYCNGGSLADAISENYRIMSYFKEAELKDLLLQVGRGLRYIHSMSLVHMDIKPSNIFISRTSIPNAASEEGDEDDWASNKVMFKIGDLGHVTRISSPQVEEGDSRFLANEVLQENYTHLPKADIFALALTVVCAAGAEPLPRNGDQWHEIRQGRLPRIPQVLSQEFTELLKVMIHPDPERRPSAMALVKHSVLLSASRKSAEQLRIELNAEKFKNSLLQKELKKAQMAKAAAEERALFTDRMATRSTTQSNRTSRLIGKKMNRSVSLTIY
T1 sequence (Q96SW2 whole entry): as the sequence (Q96SW2 whole entry) above
T1 sequence (Q16531 whole entry partner): as the sequence (Q16531 whole entry partner) above
T3 sequence (P48729 whole entry): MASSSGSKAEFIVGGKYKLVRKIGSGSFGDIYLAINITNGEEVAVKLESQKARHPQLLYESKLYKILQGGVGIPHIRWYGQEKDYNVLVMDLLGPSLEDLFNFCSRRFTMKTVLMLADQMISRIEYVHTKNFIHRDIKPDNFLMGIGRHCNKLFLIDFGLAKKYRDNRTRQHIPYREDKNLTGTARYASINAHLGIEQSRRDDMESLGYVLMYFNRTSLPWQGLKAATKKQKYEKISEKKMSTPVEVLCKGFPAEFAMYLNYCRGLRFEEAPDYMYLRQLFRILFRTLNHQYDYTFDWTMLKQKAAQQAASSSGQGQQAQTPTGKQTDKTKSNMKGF
T3 sequence (Q96SW2 whole entry): as the sequence (Q96SW2 whole entry) above
T3 sequence (Q16531 whole entry partner): as the sequence (Q16531 whole entry partner) above
T4 sequence (Q9UKS7 whole entry): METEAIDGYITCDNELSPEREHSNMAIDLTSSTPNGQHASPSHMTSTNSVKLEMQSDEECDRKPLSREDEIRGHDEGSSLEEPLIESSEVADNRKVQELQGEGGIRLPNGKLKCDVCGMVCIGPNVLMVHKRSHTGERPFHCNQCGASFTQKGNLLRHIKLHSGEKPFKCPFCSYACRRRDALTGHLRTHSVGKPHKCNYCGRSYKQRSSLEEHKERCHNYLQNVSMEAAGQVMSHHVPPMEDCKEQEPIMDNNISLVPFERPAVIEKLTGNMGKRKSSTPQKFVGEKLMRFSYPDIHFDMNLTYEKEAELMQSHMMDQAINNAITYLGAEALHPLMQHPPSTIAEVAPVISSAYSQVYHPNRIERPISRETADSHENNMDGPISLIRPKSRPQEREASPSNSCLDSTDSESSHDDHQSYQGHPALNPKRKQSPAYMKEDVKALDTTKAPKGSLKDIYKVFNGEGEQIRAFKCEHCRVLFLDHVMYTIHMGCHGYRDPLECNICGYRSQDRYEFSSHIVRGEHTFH
T4 sequence (Q96SW2 whole entry): as the sequence (Q96SW2 whole entry) above
T4 sequence (Q16531 whole entry partner): as the sequence (Q16531 whole entry partner) above

inhibition at 0.5 µM [3]	inhibition at 2 µM [3]	Structure (SMILES)	inhibition at 0.01 µM [1]	Inhibition Rate at 500 nM (%) [1]	Wee1 substrate protein remaining % (WEE1; [4])	IKZF 1 substrate protein remaining % (IKZF1; [4])	CK1α substrate protein remaining % (CK1α; [4])	IKZF2 substrate protein remaining % (IKZF2; [4])	IKZF3 substrate protein remaining % (IKZF3; [4])	inhibition at 0.01 µM [2]	inhibition at 0.5 µM [2]	GSPT1 substrate protein remaining % (GSPT1; [4])	inhibition at 0.5 µM [1]	Wee1 substrate protein remaining % (WEE1; [5])	IKZF 1 substrate protein remaining % (IKZF1; [5])	CK1α substrate protein remaining % (CK1α; [5])	IKZF2 substrate protein remaining % (IKZF2; [5])	IKZF3 substrate protein remaining % (IKZF3; [5])	GSPT1 substrate protein remaining % (GSPT1; [5])
53 to 60%	80 to 100%	O=C1CCC(N2Cc3cc(CN4CCN(c5ccc(F)cc5)CC4)ccc3C2=S)C(=O)N1 (centres unmarked) [GT-08240, 3-(5-((4-(4-fluorophenyl)piperazin-1-yl)methyl)-1-thioxoisoindolin-2-yl)piperidine-2,6-dione]	50 to 60%	–	B (80%< substrate protein remaining %≤ 100%)	B (80%< substrate protein remaining %≤ 100%)	B (80%< substrate protein remaining %≤ 100%)	B (80%< substrate protein remaining %≤ 100%)	B (80%< substrate protein remaining %≤ 100%)	0 to 5%	40 to 60%	A (0% ≤ substrate protein remaining % ≤ 80%)	50 to 60%	–	–	–	–	–	–
40 to 53%	80 to 100%	Cc1ccsc1C1CCN(Cc2ccc3c(c2)CN(C2CCC(=O)NC2=O)C3=S)CC1 (centres unmarked) [GT-08323, 3-(5-((4-(3-methylthiophen-2-yl)piperidin-1-yl)methyl)-1-thioxoisoindolin-2-yl)piperidine-2,6-dione]	0 to 5%	la7	–	–	–	–	–	-5 to 0%	40 to 60%	–	–	B (80%< substrate protein remaining %≤ 100%)	B (80%< substrate protein remaining %≤ 100%)	A (0% ≤ substrate protein remaining % ≤ 80%)	B (80%< substrate protein remaining %≤ 100%)	B (80%< substrate protein remaining %≤ 100%)	A (0% ≤ substrate protein remaining % ≤ 80%)
40 to 53%	80 to 100%	O=C1CCC(N2Cc3c(CN4C[C@@H]5C[C@H]4CN5c4cccc(Cl)c4Cl)cccc3C2=S)C(=O)N1 (stereo partly drawn) [GT-08468, 3-(4-(((1S,4S)-5-(2,3-dichlorophenyl)-2,5-diazabicyclo[2.2.1]heptan-2-yl)methyl)-1-thioxoisoindolin-2-yl)piperidine-2,6-dione]	40 to 50%	–	B (80%< substrate protein remaining %≤ 100%)	B (80%< substrate protein remaining %≤ 100%)	B (80%< substrate protein remaining %≤ 100%)	B (80%< substrate protein remaining %≤ 100%)	B (80%< substrate protein remaining %≤ 100%)	40 to 60%	40 to 60%	A (0% ≤ substrate protein remaining % ≤ 80%)	50 to 60%	–	–	–	–	–	–
30 to 40%	53 to 60%	O=C1CCC(N2Cc3c(CN4CC=C(c5cccc6c(F)cccc56)CC4)cccc3C2=S)C(=O)N1 (centres unmarked) [GT-08856, 3-(4-((4-(5-fluoronaphthalen-1-yl)-3,6-dihydropyridin-1(2H)-yl)methyl)-1-thioxoisoindolin-2-yl)piperidine-2,6-dione]	20 to 30%	–	–	–	–	–	–	40 to 60%	40 to 60%	–	40 to 50%	–	–	–	–	–	–
60 to 80%	80 to 100%	O=C1CCC(N2Cc3c(CN4CCN(c5ncnc6ccsc56)CC4)cccc3C2=S)C(=O)N1 (centres unmarked) [GT-08970, 3-(4-((4-(thieno[3,2-d]pyrimidin-4-yl)piperazin-1-yl)methyl)-1-thioxoisoindolin-2-yl)piperidine-2,6-dione]	–	–	–	–	–	–	–	18 to 25%	40 to 60%	–	–	A (0% ≤ substrate protein remaining % ≤ 80%)	B (80%< substrate protein remaining %≤ 100%)	B (80%< substrate protein remaining %≤ 100%)	B (80%< substrate protein remaining %≤ 100%)	B (80%< substrate protein remaining %≤ 100%)	B (80%< substrate protein remaining %≤ 100%)
60 to 80%	80 to 100%	Cc1cccc(N2CCN(Cc3ccc4c(c3)CN(C3CCC(=O)NC3=O)C4=S)CC2)n1 (centres unmarked) [GT-09214, 3-(5-((4-(6-methylpyridin-2-yl)piperazin-1-yl)methyl)-1-thioxoisoindolin-2-yl)piperidine-2,6-dione]	–	–	B (80%< substrate protein remaining %≤ 100%)	B (80%< substrate protein remaining %≤ 100%)	B (80%< substrate protein remaining %≤ 100%)	B (80%< substrate protein remaining %≤ 100%)	B (80%< substrate protein remaining %≤ 100%)	10 to 18%	40 to 60%	A (0% ≤ substrate protein remaining % ≤ 80%)	–	–	–	–	–	–	–
60 to 80%	80 to 100%	O=C1CCC(N2Cc3cc(CN4CCN(c5ncccc5F)CC4)ccc3C2=S)C(=O)N1 (centres unmarked) [GT-09220, 3-(5-((4-(3-fluoropyridin-2-yl)piperazin-1-yl)methyl)-1-thioxoisoindolin-2-yl)piperidine-2,6-dione]	–	–	A (0% ≤ substrate protein remaining % ≤ 80%)	A (0% ≤ substrate protein remaining % ≤ 80%)	B (80%< substrate protein remaining %≤ 100%)	A (0% ≤ substrate protein remaining % ≤ 80%)	B (80%< substrate protein remaining %≤ 100%)	30 to 40%	40 to 60%	B (80%< substrate protein remaining %≤ 100%)	–	–	–	–	–	–	–
60 to 80%	80 to 100%	O=C1CCC(N2Cc3cc(CN4CCN(c5cccc(C(F)(F)F)n5)CC4)ccc3C2=S)C(=O)N1 (centres unmarked) [GT-09224, 3-(1-thioxo-5-((4-(6-(trifluoromethyl)pyridin-2-yl)piperazin-1-yl)methyl)isoindolin-2-yl)piperidine-2,6-dione]	–	–	B (80%< substrate protein remaining %≤ 100%)	B (80%< substrate protein remaining %≤ 100%)	A (0% ≤ substrate protein remaining % ≤ 80%)	B (80%< substrate protein remaining %≤ 100%)	A (0% ≤ substrate protein remaining % ≤ 80%)	-5 to 0%	40 to 60%	A (0% ≤ substrate protein remaining % ≤ 80%)	–	–	–	–	–	–	–
60 to 80%	80 to 100%	O=C1CCC(N2Cc3cc(CN4CCN(c5cncc(Cl)c5Cl)CC4)ccc3C2=S)C(=O)N1 (centres unmarked) [GT-09231, 3-(5-((4-(4,5-dichloropyridin-3-yl)piperazin-1-yl)methyl)-1-thioxoisoindolin-2-yl)piperidine-2,6-dione]	–	–	B (80%< substrate protein remaining %≤ 100%)	A (0% ≤ substrate protein remaining % ≤ 80%)	A (0% ≤ substrate protein remaining % ≤ 80%)	A (0% ≤ substrate protein remaining % ≤ 80%)	A (0% ≤ substrate protein remaining % ≤ 80%)	30 to 40%	40 to 60%	A (0% ≤ substrate protein remaining % ≤ 80%)	–	–	–	–	–	–	–
60 to 80%	80 to 100%	O=C1CCC(N2Cc3cc(CN4CCN(c5c(F)c(F)nc(F)c5F)CC4)ccc3C2=S)C(=O)N1 (centres unmarked) [GT-09250, 3-(5-((4-(perfluoropyridin-4-yl)piperazin-1-yl)methyl)-1-thioxoisoindolin-2-yl)piperidine-2,6-dione]	30 to 40%	la7	–	–	–	–	–	30 to 40%	40 to 60%	–	–	–	–	–	–	–	–

Structure (SMILES)	inhibition at 0.5 µM [3]	inhibition at 2 µM [3]	inhibition at 0.01 µM [1]	Inhibition Rate at 500 nM (%) [1]	Wee1 substrate protein remaining % (WEE1; [4])	IKZF 1 substrate protein remaining % (IKZF1; [4])	CK1α substrate protein remaining % (CK1α; [4])	IKZF2 substrate protein remaining % (IKZF2; [4])	IKZF3 substrate protein remaining % (IKZF3; [4])	inhibition at 0.01 µM [2]	inhibition at 0.5 µM [2]	GSPT1 substrate protein remaining % (GSPT1; [4])	inhibition at 0.5 µM [1]	Wee1 substrate protein remaining % (WEE1; [5])	IKZF 1 substrate protein remaining % (IKZF1; [5])	CK1α substrate protein remaining % (CK1α; [5])	IKZF2 substrate protein remaining % (IKZF2; [5])	IKZF3 substrate protein remaining % (IKZF3; [5])	GSPT1 substrate protein remaining % (GSPT1; [5])
O=C1CCC(N2Cc3cc(CN4C5CCC4CN(C(c4ccccc4)c4ccccc4)C5)ccc3C2=S)C(=O)N1 (centres unmarked) [GT-07850, 3-(5-((3-benzhydryl-3,8-diazabicyclo[3.2.1]octan-8-yl)methyl)-1-thioxoisoindolin-2-yl)piperidine-2,6-dione]	40 to 53%	80 to 100%	30 to 40%	la7	A (0% ≤ substrate protein remaining % ≤ 80%)	B (80%< substrate protein remaining %≤ 100%)	B (80%< substrate protein remaining %≤ 100%)	A (0% ≤ substrate protein remaining % ≤ 80%)	B (80%< substrate protein remaining %≤ 100%)	40 to 60%	40 to 60%	A (0% ≤ substrate protein remaining % ≤ 80%)	–	–	–	–	–	–	–
